Assay results taken from US20250282818A1, “SYRBACTIN MACROLACTAMS AND UNNATURAL ANALOGS AS PROTEASOME INHIBITORS FOR THE TREATMENT OF MULTIPLE MYELOMA AND CHEMOENZYMATIC SYNTHESIS THEREOF” (UNIVERSITY OF FLORIDA RESEARCH FOUNDATION,INCORPORATED, priority 2022, published 2025).
Entries after “also recorded” stand apart in the source; their conditions may differ.

Legend:
RPMI 8226 cells [1] = experiment: RPMI8226 cytotoxicity screening (WST-1); assay type: cell-based, human; conditions: for cytotoxicity / activity compared with the natural product, in words: 30 nM and 100 nM compound concentration; for potency compared with parent natural product 1 in screening (FIG. 6A, 6B): 30 nM and 100 nM, cytotoxicities track with proteasome inhibition at 30 nM
Method: Cellular assays were performed with human multiple myeloma cell line RPMI 8226. First, relative inhibition of proteasome subunits β5 and β2 for all analogs and the natural product was measured at 30 nM compound concentration. Following incubation of the analogs in cell culture for 6 hours, cells were lysed and fluorogenic subunit-specific peptide substrates Suc-LLVY-AMC (β5) or Ac-RLR-AMC (β2) were incubated with the lysates, and fluorescence readings provided relative proteasome activity levels with respect to DMSO (FIG. 6A). Next, cytotoxicity screening was performed at 30 nM and 100 nM concentrations for better coverage of dynamic range (FIG. 6B). […] Therefore, the improved cytotoxicity of phenyl cepafungin 50 likely results from a more pronounced loss of β5 function in RPMI 8226 cells. This drastic increase in proteasome inhibition may be due to pi-stacking of the lipid tail phenyl ring with the β6 subunit residues Tyr106 and/or Tyr5. The β2 subunit-bound natural product has residues Tyr102 and Phe103 on the adjacent β3 subunit oriented further away from the terminal lipid methyl groups, and presumably would not facilitate pi-stacking to the extent possible at the adjacent β6 subunit (see FIG. 4, FIG. 9). […] These combined modifications were made in hopes that the effects of both substitutions would be additive.
[…] Toxicity was determined using the WST-1 assay (Roche) according to the protocol of the manufacturer. (n=3)

RPMI 8226 cells [2] = experiment: RPMI 8226 cytotoxicity EC50 measurements (WST-1); assay type: cell-based, human; conditions: RPMI 8226, 48 hours
Method: (§1) RPMI 8226 cells were seeded in a 96-well plate (20,000 cells/well) in cell culture media supplemented with indicated compounds (1,000× stock in DMSO) or DMSO and cultured for 48 hours. Toxicity was determined using the WST-1 assay (Roche) according to the protocol of the manufacturer. (n=3)
as §1, with “Cytotoxicity of phenyl cepafungin (50) and hybrid analog (S39) in RPMI 8226 RPMI” for “RPMI”

proteasome subunit β5 = molecular target: T1, proteasome subunit β5 (Homo sapiens, UniProt P28074); experiment: Proteasome inhibition IC50 measurements in RPMI 8226 cells, substrate Suc-LLVY-AMC (β5); assay type: cell-based; conditions: β5, RPMI 8226 cells
T1 construct: Cells were then collected and lysed; endogenous in cells; host or cells: RPMI 8226
From the text: Our preliminary series of analogs (FIG. 3), including the natural product glidobactin A (2), were synthesized by largely the same route (FIG. 2).^13 Desoxycepafungin (38) was synthesized from Boc-Lys(Boc)-OH to assess the role of the macrocycle hydroxylation in 1 towards proteasome inhibition. The saturated cepafungin analog 39 was designed to address the possible role of rigidity in the tail fragment induced by the diene seen in many natural cepafungins and glidobactins. An analog bearing unsaturation at its macrocyclic lysine was envisioned to provide a head-to-head comparison between the cepafungin and syringolin A (4) macrocyclic core. […] Proteasome subunit β5 IC50 values were determined in situ in RPMI 8226 cells (FIG. 3). In close agreement with prior measurement of β5 IC50 for natural 1 and 2 in purified yeast proteasome,^8 in our hands the additional branching methyl in 1 indeed leads to ca. 5-fold improved IC50 compared to 2 in RPMI 8226 cells. […] Likewise, saturation of the fatty acid fragment in 39 causes ca. 14-fold decrease in β5 inhibition. This preliminary series of analogs highlighted that the macrocyclic hydroxylation, fatty acid unsaturation, and terminal lipid functionality are critical for potent proteasome inhibitory activity.
Cellular assays were performed with human multiple myeloma cell line RPMI 8226. First, relative inhibition of proteasome subunits β5 and β2 for all analogs and the natural product was measured at 30 nM compound concentration. Following incubation of the analogs in cell culture for 6 hours, cells were lysed and fluorogenic subunit-specific peptide substrates Suc-LLVY-AMC (β5) or Ac-RLR-AMC (β2) were incubated with the lysates, and fluorescence readings provided relative proteasome activity levels with respect to DMSO (FIG. 6A). Next, cytotoxicity screening was performed at 30 nM and 100 nM concentrations for better coverage of dynamic range (FIG. 6B). […] Therefore, the improved cytotoxicity of phenyl cepafungin 50 likely results from a more pronounced loss of β5 function in RPMI 8226 cells. This drastic increase in proteasome inhibition may be due to pi-stacking of the lipid tail phenyl ring with the β6 subunit residues Tyr106 and/or Tyr5. The β2 subunit-bound natural product has residues Tyr102 and Phe103 on the adjacent β3 subunit oriented further away from the terminal lipid methyl groups, and presumably would not facilitate pi-stacking to the extent possible at the adjacent β6 subunit (see FIG. 4, FIG. 9). […]
RPMI 8226 cells were seeded in a 6-well plate (1,000,000 cells/well) in cell culture media supplemented with indicated compounds (1,000× stock in DMSO) or DMSO and cultured for 6 hours. […] The plates were incubated at 37° C. for one hour and fluorescence was read at A360ex/A460em. […]

Row | Structure (SMILES) | cytotoxicity / activity compared with the natural product, in words (RPMI 8226 cells [1]) | other results
1 | CC(C)CCCCC/C=C/C=C/C(=O)N[C@H](C(=O)N[C@H]1C[C@H](O)CCNC(=O)/C=C/[C@H](C)NC1=O)[C@@H](C)O [compound 40, (2E,4E)-N-((2S,3R)-3-hydroxy-1-(((5S,8S,10R,E)-10-hydroxy-5-methyl-2,7-dioxo-1,6-diazacyclododec-3-en-8-yl)amino)-1-oxobutan-2-yl)-11-methyldodeca-2,4-dienamide] | nearly inactive at both concentrations | –
2 | CC(C)CCCCC/C=C/C=C/C(=O)N[C@H](C(=O)N[C@@H]1C(=O)N[C@@H](C)/C=C/C(=O)NCCC[C@@H]1O)[C@@H](C)O [compound 41, (2E,4E)-N-((2S,3R)-3-hydroxy-1-(((5S,8S,9S,E)-9-hydroxy-5-methyl-2,7-dioxo-1,6-diazacyclododec-3-en-8-yl)amino)-1-oxobutan-2-yl)-11-methyldodeca-2,4-dienamide] | nearly inactive at both concentrations | –
3 | CC(C)CCCCC/C=C/C=C/C(=O)N[C@H](C(=O)N[C@H]1C[C@@H](O)CCNC(=O)/C=C/[C@H](C(C)C)NC1=O)[C@@H](C)O [compound 43, (2E,4E)-N-((2S,3R)-3-hydroxy-1-(((5S,8S,10S,E)-10-hydroxy-5-isopropyl-2,7-dioxo-1,6-diazacyclododec-3-en-8-yl)amino)-1-oxobutan-2-yl)-11-methyldodeca-2,4-dienamide] | slightly greater cytotoxicity than the natural product | potency compared with parent natural product 1 in screening (FIG. 6A, 6B) (RPMI 8226 cells [1]): more potent than the parent natural product 1
4 | CC(C)CCCCC/C=C/C=C/C(=O)N[C@H](C(=O)N[C@H]1C[C@@H](O)CCNC(=O)/C=C/[C@H](C)NC1=O)[C@H](O)C(C)C [compound 46, (2E,4E)-N-((2S,3R)-3-hydroxy-1-(((5S,8S,10S,E)-10-hydroxy-5-methyl-2,7-dioxo-1,6-diazacyclododec-3-en-8-yl)amino)-4-methyl-1-oxopentan-2-yl)-11-methyldodeca-2,4-dienamide] | approached the potency of the natural product | –
5 | CC(C)[C@H]1/C=C/C(=O)NCC[C@H](O)C[C@H](NC(=O)[C@@H](NC(=O)/C=C/C=C/CCCCCc2ccccc2)[C@@H](C)O)C(=O)N1 [S39, (2E,4E)-N-((2S,3R)-3-hydroxy-1-(((5S,8S,10S,E)-10-hydroxy-5-isopropyl-2,7-dioxo-1,6-diazacyclododec-3-en-8-yl)amino)-1-oxobutan-2-yl)-10-phenyldeca-2,4-dienamide] | – | EC50 (RPMI 8226 cells [2]; Homo sapiens, WST-1): 4.5 nM; cytotoxicity EC50 compared with natural product and 50, in words (RPMI 8226 cells [2]): significantly more potent than the natural product; also recorded: its cytotoxicity did not surpass that of 50
6 | C[C@H]1/C=C/C(=O)NCC[C@H](O)C[C@H](NC(=O)[C@@H](NC(=O)/C=C/C=C/CCCCCC(F)(F)F)[C@@H](C)O)C(=O)N1 [compound 51, (2E,4E)-11,11,11-trifluoro-N-((2S,3R)-3-hydroxy-1-(((5S,8S,10S,E)-10-hydroxy-5-methyl-2,7-dioxo-1,6-diazacyclododec-3-en-8-yl)amino)-1-oxobutan-2-yl)undeca-2,4-dienamide] | essentially inactive at both concentrations tested | –
7 | CC(C)CCCCC/C=C/C=C/C(=O)N[C@H](C(=O)N[C@H]1C[C@@H](O)CCNC(=O)/C=C/[C@H](C)NC1=O)[C@H](O)c1ccccc1 [compound 45, (2E,4E)-N-((1R,2S)-1-hydroxy-3-(((5S,8S,10S,E)-10-hydroxy-5-methyl-2,7-dioxo-1,6-diazacyclododec-3-en-8-yl)amino)-3-oxo-1-phenylpropan-2-yl)-11-methyldodeca-2,4-dienamide] | substantially weaker | –
8 | C[C@H]1/C=C/C(=O)NCC[C@H](O)C[C@H](NC(=O)[C@@H](NC(=O)/C=C/C=C/CCCCCC2CCCC2)[C@@H](C)O)C(=O)N1 [compound 48, (2E,4E)-10-cyclopentyl-N-((2S,3R)-3-hydroxy-1-(((5S,8S,10S,E)-10-hydroxy-5-methyl-2,7-dioxo-1,6-diazacyclododec-3-en-8-yl)amino)-1-oxobutan-2-yl)deca-2,4-dienamide] | improved cytotoxicity relative to 1 | potency compared with parent natural product 1 in screening (FIG. 6A, 6B) (RPMI 8226 cells [1]): more potent than the parent natural product 1
9 | CC(C)CCCCC/C=C/C=C/C(=O)N[C@H](C(=O)N[C@H]1CC(=O)CCNC(=O)/C=C/[C@H](C)NC1=O)[C@@H](C)O [compound 42, (2E,4E)-N-((2S,3R)-3-hydroxy-1-(((5S,8S,E)-5-methyl-2,7,10-trioxo-1,6-diazacyclododec-3-en-8-yl)amino)-1-oxobutan-2-yl)-11-methyldodeca-2,4-dienamide] | potency approaching that of the natural product | –
10 | C[C@H]1/C=C/C(=O)NCC[C@H](O)C[C@H](NC(=O)[C@@H](NC(=O)/C=C/C=C/CCCCCC(C)(C)C)[C@@H](C)O)C(=O)N1 [compound 47, (2E,4E)-N-((2S,3R)-3-hydroxy-1-(((5S,8S,10S,E)-10-hydroxy-5-methyl-2,7-dioxo-1,6-diazacyclododec-3-en-8-yl)amino)-1-oxobutan-2-yl)-11,11-dimethyldodeca-2,4-dienamide] | improved cytotoxicity relative to 1 | potency compared with parent natural product 1 in screening (FIG. 6A, 6B) (RPMI 8226 cells [1]): more potent than the parent natural product 1
11 | CC[C@H](NC(=O)/C=C/C=C/CCCCCC(C)C)C(=O)N[C@H]1C[C@@H](O)CCNC(=O)/C=C/[C@H](C)NC1=O [compound 44, (2E,4E)-N—((S)-1-(((5S,8S,10S,E)-10-hydroxy-5-methyl-2,7-dioxo-1,6-diazacyclododec-3-en-8-yl)amino)-1-oxobutan-2-yl)-11-methyldodeca-2,4-dienamide] | Thr residue next to the cepafungin macrocycle appears to be favored over the ethyl sidechain of desoxy-Thr analog 44 | –
12 | C[C@H]1/C=C/C(=O)NCC[C@H](O)C[C@H](NC(=O)[C@@H](NC(=O)/C=C/C=C/CCCCCC2CCCCC2)[C@@H](C)O)C(=O)N1 [compound 49, (2E,4E)-10-cyclohexyl-N-((2S,3R)-3-hydroxy-1-(((5S,8S,10S,E)-10-hydroxy-5-methyl-2,7-dioxo-1,6-diazacyclododec-3-en-8-yl)amino)-1-oxobutan-2-yl)deca-2,4-dienamide] | roughly similar activity as the natural product | –
13 | CC(C)CCCCC/C=C/C=C/C(=O)N[C@H](C(=O)N[C@H]1CCCCNC(=O)/C=C/[C@H](C)NC1=O)[C@@H](C)O [compound 38, Desoxycepafungin] | – | fold higher IC50 than 1 (proteasome subunit β5): ca. 11 fold
